These results are taken from publication PMC7332671 (Acta Pharmaceutica Sinica. B, 2020).

Like-named read-outs stand apart in the source and are kept apart here.

Common to all, as to test: SPR
Format in all cases: binding

Test [1] deals with T1, P53 (Homo sapiens, UniProt P04637).
Test [2] addresses T1, P53. This is another data set of the same source.
The target in test [3] is T1, P53. This is another data set of the same source.

T1 sequence (P04637 94-312): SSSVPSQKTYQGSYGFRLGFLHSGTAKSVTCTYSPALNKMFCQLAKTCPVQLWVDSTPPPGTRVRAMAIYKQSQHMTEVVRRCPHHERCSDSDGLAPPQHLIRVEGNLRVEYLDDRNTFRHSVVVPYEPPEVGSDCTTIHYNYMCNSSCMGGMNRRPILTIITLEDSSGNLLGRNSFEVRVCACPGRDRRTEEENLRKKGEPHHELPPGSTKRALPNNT

The compound `CCn1c2ccccc2c2cc(CNC)ccc21` [PhiKan083] had a Kd in test [1] of 122 µM.

For the compound `CC(C)=CCC[C@](C)(O)[C@H]1CC[C@]2(C)[C@@H]1[C@H](O)C[C@@H]1[C@@]3(C)CC[C@H](O)C(C)(C)[C@@H]3[C@@H](O)C[C@]12C` [(S)-PPT, 20(S)-Protopanaxatriol], in test [2], the equilibrium dissociation constant (Kd) came out at 6.63 µM.

In the case of 20(S)-Ro, the Kd in test [3] amounted to 10.2 µM.

`CC(C)=CCC[C@](C)(O)[C@H]1CC[C@]2(C)[C@@H]1[C@H](O)C[C@@H]1[C@@]3(C)CC[C@H](O)C(C)(C)[C@@H]3CC[C@]12C` [20(S)-PPD] registered a Kd in test [3] of 41.1 µM.

One may read the Kd as the concentration at which binding is half-saturated. Read a high Kd as a looser complex.
